In US8530517B2, “Retinoid derivatives endowed with cytotoxic and/or antiangiogenic properties” (Sigma-Tau Industrie Farmaceutiche Riunite S.p.A., priority 2008, dated 2013):
Counter-ions that a name gives are not always drawn. Like-named read-outs stand apart in the source and are kept apart here.

Tests used:
[1] = tested on: NCI-H460 non-small cell lung carcinoma cells; assay: Cytotoxicity on NCI-H460 tumor cell line (sulphorodamine B test); format: cell-based; settings: further 48 h in drug-free medium, read-out: NCI-H460 IC50 μM ± SD
Procedure: To evaluate the effect of the compounds on survival cells, the sulphorodamine B test was used. To test the effects of the compounds on cell growth, NCI-H460 non-small cell lung carcinoma cells were used. Tumor cells were grown in RPMI 1640 containing 10% fetal bovine serum (GIBCO).
Tumor cells were seeded in 96-well tissue culture plates at approximately 10% confluence and were allowed to attach and recover for at least 24 h. Varying concentrations of the drugs were then added to each well to calculate their IC50 value (the concentration which inhibits the 50% of cell survival). The plates were incubated at 37° C. for 24 h. At the end of the treatment, the plates were washed by remotion of the surnatant and addition of PBS. Medium culture (200 μL) was added again and the plates were incubated for further 48 h at 37° C. 200 μl PBS and 50 μl of cold 80% TCA were added. The plates were incubated on ice for at least 1 h. TCA was removed, the plates were washed 3 times for immersion in distilled-water and dried on paper and at 40° C. for 5 min. Then 200 μl of 0.4% sulphorodamine B in 1% acetic acid were added. The plates were incubated at room temperature for other 30 min. Sulphorodamine B was removed, the plates were washed for immersion in 1% acetic acid for 3 times, then they were dried on paper and at 40° C. for 5 min. Then 200 μl Tris 10 mM were added, the plates were kept under stirring for 20 min. The survival cell was determined as optical density by a Multiskan spectrofluorimeter at 540 nm. The amount of cells killed was calculated as the percentage decrease in sulphorodamine B binding compared with control cultures, the latter involving the use of (2E)-3-[3′-(1-adamantyl)-4′-hydroxy[1,1′-biphenyl]-4-yl]-2-propenoic acid (ST1926).
The IC50 values were calculated with the “ALLFIT” program.

[2] = tested on: human ovarian cancer cell line A2780; assay: Cytotoxicity on A2780 tumor cell line; format: cell-based; settings: 5 Mm as printed in head (text: 5 μM), preliminary results; for inhibition at 5 µM: Homo sapiens, A2780
Procedure: The antiproliferative effect of the compounds is reported as percentages of inhibition of cellular proliferation measured at 5 μM as reported in table 3.

A431 tumour cells = assay: In vivo study on A431 epidermoid carcinoma; settings: iv 10 mg/10 ml/kg, qdx3/wx2w, after two weeks of treatment, sc A431 in CD1 nude mice; p=0.036 versus vehicle
Procedure: The tumour was generated by subcutaneous injection of A431 tumour cells (5×10^6/100 μl/mouse), in 0.1 ml medium Tc199 in the right flank of CD1 nude mice. 3 days after tumour injection, ST5589 was delivered iv at a dose of 10 mg/10 ml/kg according to the schedule qdx3/wx2w in a group of 9 mice.
To evaluate the antitumour activity of ST5589, tumour diameters were measured biweekly with a Vernier caliper and tumour volume was calculated according to the formula TV=d^2×D/2
where d and D are the shortest and longest diameters, respectively.
The efficacy of the drug was assessed as the tumour volume inhibition according to the formula reported underneath: […]

[3] = Chemical stability in solution at various pH; format: physicochemical; settings: after 24 h at pH 7.4
Procedure: The compounds were screened at various pH in order to test their relative chemical stability in solution. All of them resulted stable after incubation for 3 h at pH=1.2. Chemical stability was also investigated at pH=7.4 after 24 h incubation.

[4] = Homo sapiens, NCI-H460, 24 h treatment

| Structure (SMILES) | IC50 [1, 4] [µM] | inhibition at 5 µM [2] [%] | further results |
| --- | --- | --- | --- |
| O=C(O)/C=C/c1ccc(-c2ccc(O)c(C34CC5CC(CC(C5)C3)C4)c2)cc1 [Control, (2E)-3-[3′-(1-adamantyl)-4′-hydroxy[1,1′-biphenyl]-4-yl]-2-propenoic acid, reference compound] | 0.13 |  |  |
| CC(C)[C@H](N)C(=O)Oc1ccc(-c2ccc(/C=C/C(=O)O)cc2)cc1C12CC3CC(CC(C3)C1)C2 [Example 1, (S)-2-amino-3-methyl-butyric acid 3-adamantan-1-yl-4′-((E)-2-carboxy-vinyl)-biphenyl-4-yl ester hydrochloride] | 0.51 ± 0.003 | 93 |  |
| O=C(O)/C=C/c1ccc(-c2ccc(OC(=O)COCCOCCOCC(=O)O)c(C34CC5CC(CC(C5)C3)C4)c2)cc1 [Example 2, (E)-3-(3′-adamantan-1-yl-4′-{2-[2-(2-carboxymethoxy-ethoxy)-ethoxy]-acetoxy}-biphenyl-4-yl)-acrylic acid] | 0.17 ± 0.007 | 93 |  |
| CCCCCCCCCCC(=O)Oc1ccc(-c2ccc(/C=C/C(=O)O)cc2)cc1C12CC3CC(CC(C3)C1)C2 [Example 3, undecanoic acid 3-adamantan-1-yl-4′-((E)-2-carboxy-vinyl)-biphenyl-4-yl ester] | 1.54 ± 0.08 | 94 |  |
| Cl.O=C(O)/C=C/c1ccc(-c2ccc(OC(=O)CCCN3CCOCC3)c(C34CC5CC(CC(C5)C3)C4)c2)cc1 [Example 4, 4-morpholin-4-yl-butyric acid 3-adamantan-1-yl-4′-((E)-2-carboxy-vinyl)-biphenyl-4-yl ester hydrochloride] | 0.22 ± 0.009 | 94 | reduction in tumour volume (tumour volume inhibition) (A431 tumour cells): 34% |
| CN1CCN(CCCC(=O)Oc2ccc(-c3ccc(/C=C/C(=O)O)cc3)cc2C23CC4CC(CC(C4)C2)C3)CC1 [Example 5, 4-(4-methyl-piperazin-1-yl)-butyric acid 3-adamantan-1-yl-4′-((E)-2-carboxy-vinyl)-biphenyl-4-yl ester dihydrochloride] | 0.24 ± 0.01 | 92 |  |
| CNCCNC(=O)Oc1ccc(-c2ccc(/C=C/C(=O)O)cc2)cc1C12CC3CC(CC(C3)C1)C2 [Example 6, (E)-3-[3′-adamantan-1-yl-4′-(2-methylamino-ethylcarbamoyloxy)-biphenyl-4-yl]-acrylic acid] | 0.24 ± 0.008 | 93 |  |
| O=C(O)/C=C/c1ccc(-c2ccc(OC(=O)NCC(=O)O)c(C34CC5CC(CC(C5)C3)C4)c2)cc1 [Example 7, (E)-3-(3′-adamantan-1-yl-4′-carboxymethylcarbamoyloxy-biphenyl-4-yl)-acrylic acid] | 3 ± 0.1 | 26 |  |
| NCCCCNC(=O)Oc1ccc(-c2ccc(/C=C/C(=O)O)cc2)cc1C12CC3CC(CC(C3)C1)C2 [Example 8, (E)-3-[3′-adamantan-1-yl-4′-(4-amino-butylcarbamoyloxy)-biphenyl-4-yl]-acrylic acid hydrochloride] | 2.6 ± 0.08 | 70 |  |
| O=C(O)/C=C/c1ccc(-c2ccc(OC(=O)NCCN3CCOCC3)c(C34CC5CC(CC(C5)C3)C4)c2)cc1 [Example 9, (E)-3-[3′-adamantan-1-yl-4′-(2-morpholin-4-yl-ethyl-carbamoyloxy)-biphenyl-4-yl]-acrylic acid hydrochloride] | 0.92 ± 0.05 | 90 |  |
| CCCCCCCCCCCNC(=O)Oc1ccc(-c2ccc(/C=C/C(=O)O)cc2)cc1C12CC3CC(CC(C3)C1)C2 [Example 10, (E)-3-(3′-adamantan-1-yl-4′-undecyl-carbamoyloxy-biphenyl-4-yl)-acrylic acid] |  |  | % Inhibition at 5 Mm on A2780 cell line [2]: 90%; IC50 ([1]; 24 h treatment): 1.39 ± 0.04 µM |
| O=C(O)/C=C/c1ccc(-c2ccc(OC(=O)N3CCC(N4CCCCC4)CC3)c(C34CC5CC(CC(C5)C3)C4)c2)cc1 [Example 11, [1,4′]bipiperidinyl-1′-carboxylic acid 3-adamantan-1-yl-4′-((E)-2-carboxy-vinyl)-biphenyl-4-yl ester hydrochloride] | > 20 |  |  |
| CC(C)NC(=O)Oc1ccc(-c2ccc(/C=C/C(=O)O)cc2)cc1C12CC3CC(CC(C3)C1)C2 [Example 12] |  |  | IC50 ([1]; 24 h treatment): 5 µM |
| O=C(O)/C=C/c1ccc(-c2ccc(OC(=O)NC3CCN(C(=O)OCc4ccccc4)CC3)c(C34CC5CC(CC(C5)C3)C4)c2)cc1 [Example 13, 4-[3-adamantan-1-yl-4′-((E)-2-carboxy-vinyl)-biphenyl-4-yloxycarbonylamino]-piperidine-1-carboxylic acid benzyl ester] | 5 | 71 |  |
| CC(C)C[C@H](NC(=O)Oc1ccc(-c2ccc(/C=C/C(=O)O)cc2)cc1C12CC3CC(CC(C3)C1)C2)C(=O)NCC(=O)O [Example 14, (E)-3-{3′-Adamantan-1-yl-4′-[(S)-1-(carboxymethyl-carbamoyl)-3-methyl-butylcarbamoyloxy]-biphenyl-4-yl}-acrylic acid] | 3.5 ± 0.2 |  |  |
| COCCOCOc1ccc(-c2ccc(/C=C/C(=O)O)cc2)cc1C12CC3CC(CC(C3)C1)C2 [Example 15, (E)-3-[3′-Adamantan-1-yl-4′-(2-methoxyethoxymethoxy)-biphenyl-4-yl]acrylic acid] | 4.2 ± 0.04 | 78 |  |
| O=C(O)/C=C/c1ccc(-c2ccc(OC(=O)C3CC3)c(C34CC5CC(CC(C5)C3)C4)c2)cc1 [Example 16, (E)-cyclopropanecarboxylic acid 3-adamantan-1-yl-4′-(2-carboxyvinyl)-biphenyl-4-yl ester] |  |  | % Inhibition at 5 Mm on A2780 cell line [2]: 93%; IC50 ([1]; 24 h treatment): 0.85 ± 0.03 µM |
| O=C(O)/C=C/c1ccc(-c2ccc(OCN3C(=O)c4ccccc4C3=O)c(C34CC5CC(CC(C5)C3)C4)c2)cc1 [Example 17, (E)-3-[3′-Adamantan-1-yl-4′-(1,3-dioxo-1,3-dihydroisoindol-2-ylmethoxy)-biphenyl-4yl]-acrylic acid] | 8.4 ± 1.6 |  |  |
| CCCCCC=CC/C=C/CCCCCCCC(=O)Oc1ccc(-c2ccc(C=CC(=O)O)cc2)cc1C12CC3CC(CC(C3)C1)C2 [Example 18, (E)-Octadeca-9,12-dienoic acid 3-adamantan-1-yl-4′-(2-carboxyvinyl)-biphenyl-4-yl ester] | 7.8 ± 0.7 | 55 |  |
| CCCOC(=O)OCOc1ccc(-c2ccc(/C=C/C(=O)O)cc2)cc1C12CC3CC(CC(C3)C1)C2 [Example 19] |  |  | IC50 ([1]; 24 h treatment): 0.32 ± 0.01 µM |
| NC1(C(=O)Oc2ccc(-c3ccc(/C=C/C(=O)O)cc3)cc2C23CC4CC(CC(C4)C2)C3)CC1.O=C(O)C(F)(F)F [Example 20, (E)-1-[3-Adamantan-1-yl-4′-(2-carboxyvinyl)-biphenyl-4-yloxycarbonyl]-cyclopropyl-ammonium trifluoroacetate] | 0.1 ± 0.003 | 94 | amount of E-4-(3-(1-adamantyl)-4-hydroxyphenyl)cinnamic acid (hydrolysed parent compound) [3]: 8% |
| N#CCOc1ccc(-c2ccc(/C=C/C(=O)O)cc2)cc1C12CC3CC(CC(C3)C1)C2 [Example 21, (E)-3-(3′-Adamantan-1-yl-4′-cyanomethoxybiphenyl-4-yl)-acrylic acid] | 0.85 ± 0.06 |  |  |
| O=C(O)/C=C/c1ccc(-c2ccc(OCCN3CCOCC3)c(C34CC5CC(CC(C5)C3)C4)c2)cc1 [Example 23, (E)-3-[3′-Adamantan-1-yl-4′-(2-morpholin-4-yl-ethoxy)biphenyl-4-yl]-acrylic acid] | > 5 |  |  |
